What was measured:
ST8814 [1] = assay: relative IC50 (inflection point of fitted dose-response curve, CellTox-Green cytotoxicity, 72 h; top asymptote may be below 50%); higher = less potent
Outline: (§1)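 MPNST cell lines and primary human Schwann cells were grown for 72 h at 37 °C in 384-well plates containing five 10-fold compound dilutions. CellTox-Green, added before seeding at a final 1:1000 dilution, gave fluorescence from DNA released by disrupted cells, and signals were scaled to vehicle and positive-control wells. Curves were fitted with a four-parameter logistic model. Drug sensitivity score and relative IC50 come from these fits, with IC50 censored at the top concentration.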

STS26T [2] = assay: as above
Outline: as §1

S1507-2 [3] = assay: as above
Outline: as §1

HSC2 [4] = assay: as above
Outline: as §1

HSC1 [5] = assay: as above
Outline: as §1

HS-PSS [6] = assay: as above
Outline: as §1

HS-Sch-2 = assay: relative IC50 (inflection point of fitted dose-response curve, CellTiter-Glo viability, 72 h; top asymptote may be below 50% inhibition); higher = less potent
Outline: (§2)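 For this screen, 384-well plates were preprinted with each compound at five concentrations in 10-fold steps and seeded with MPNST cell lines or primary human Schwann cells at 750–1000 cells per well. Incubation lasted 72 h at 37 °C, 5% CO2, and CellTiter-Glo ATP luminescence, scaled between vehicle and positive-control wells and averaged over duplicates where available, served as viability. Logistic fits with four parameters were applied. Relative IC50 (censored at the top concentration) and drug sensitivity score derive from these fits, and percent inhibition is at the top concentration.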

ST8814 [7] = assay: as above
Outline: as §2

STS26T [8] = assay: as above
Outline: as §2

YST-1 = assay: as above
Outline: as §2

S1507-2 [9] = assay: as above
Outline: as §2

HSC2 [10] = assay: as above
Outline: as §2

HSC1 [11] = assay: as above
Outline: as §2

S462 = assay: as above
Outline: as §2

HS-PSS [12] = assay: as above
Outline: as §2

COc1ccc(S(=O)(=O)Nc2cccnc2Nc2ccc(O)cc2)cc1 [ABT-751]
relative IC50 (ST8814 [1]): 536 nM | relative IC50 (STS26T [2]): 246 nM | relative IC50 (S1507-2 [3]): 355 nM | relative IC50 (HSC2 [4]): 304 nM | relative IC50 (HSC1 [5]): 831 nM | relative IC50 (HS-PSS [6]): > 10000 nM | relative IC50 (HS-Sch-2): 437 nM | relative IC50 (ST8814 [7]): 353 nM | relative IC50 (STS26T [8]): 367 nM | relative IC50 (YST-1): 814 nM | relative IC50 (S1507-2 [9]): 325 nM | relative IC50 (HSC2 [10]): 476 nM | relative IC50 (HSC1 [11]): 468 nM | relative IC50 (S462): 351 nM | relative IC50 (HS-PSS [12]): 3010 nM

C[C@@]1(C(=O)Nc2ccc(F)nc2)CCCN1c1nc(Nc2cc(C3CC3)n[nH]2)c2cccn2n1
relative IC50 (ST8814 [1]): 312 nM | relative IC50 (STS26T [2]): 279 nM | relative IC50 (S1507-2 [3]): 1650 nM | relative IC50 (HSC2 [4]): 1400 nM | relative IC50 (HSC1 [5]): 2360 nM | relative IC50 (HS-PSS [6]): 3330 nM | relative IC50 (HS-Sch-2): 1150 nM | relative IC50 (ST8814 [7]): 534 nM | relative IC50 (STS26T [8]): 663 nM | relative IC50 (YST-1): 18.2 nM | relative IC50 (S1507-2 [9]): 495 nM | relative IC50 (HSC2 [10]): 308 nM | relative IC50 (HSC1 [11]): 441 nM | relative IC50 (S462): 307 nM | relative IC50 (HS-PSS [12]): 1650 nM

CC(C)c1cc(-c2n[nH]c(=O)n2-c2ccc3c(ccn3C)c2)c(O)cc1O [Ganetespib]
relative IC50 (ST8814 [1]): 11.5 nM | relative IC50 (STS26T [2]): 33 nM | relative IC50 (S1507-2 [3]): 46.4 nM | relative IC50 (HSC2 [4]): 18.5 nM | relative IC50 (HSC1 [5]): 17.8 nM | relative IC50 (HS-PSS [6]): 37.5 nM | relative IC50 (HS-Sch-2): 23.2 nM | relative IC50 (ST8814 [7]): 18.1 nM | relative IC50 (STS26T [8]): 24.4 nM | relative IC50 (YST-1): 36.8 nM | relative IC50 (S1507-2 [9]): 42.4 nM | relative IC50 (HSC2 [10]): 17.2 nM | relative IC50 (HSC1 [11]): 14.9 nM | relative IC50 (S462): 25 nM | relative IC50 (HS-PSS [12]): 42.7 nM

O=NN(CCCl)C(=O)NC1CCCCC1 [Lomustine]
relative IC50 (ST8814 [1]): > 10000 nM | relative IC50 (STS26T [2]): > 10000 nM | relative IC50 (S1507-2 [3]): > 10000 nM | relative IC50 (HSC2 [4]): > 10000 nM | relative IC50 (HSC1 [5]): > 10000 nM | relative IC50 (HS-PSS [6]): > 10000 nM | relative IC50 (HS-Sch-2): > 10000 nM | relative IC50 (ST8814 [7]): > 10000 nM | relative IC50 (STS26T [8]): > 10000 nM | relative IC50 (YST-1): > 10000 nM | relative IC50 (S1507-2 [9]): > 10000 nM | relative IC50 (HSC2 [10]): > 10000 nM | relative IC50 (HSC1 [11]): > 10000 nM | relative IC50 (S462): > 10000 nM | relative IC50 (HS-PSS [12]): > 10000 nM

O=C(CCBr)N1CCN(C(=O)CCBr)CC1 [Pipobroman]
relative IC50 (ST8814 [1]): > 10000 nM | relative IC50 (STS26T [2]): > 10000 nM | relative IC50 (S1507-2 [3]): > 10000 nM | relative IC50 (HSC2 [4]): > 10000 nM | relative IC50 (HSC1 [5]): > 10000 nM | relative IC50 (HS-PSS [6]): > 10000 nM | relative IC50 (HS-Sch-2): > 10000 nM | relative IC50 (ST8814 [7]): > 10000 nM | relative IC50 (STS26T [8]): > 10000 nM | relative IC50 (YST-1): > 10000 nM | relative IC50 (S1507-2 [9]): > 10000 nM | relative IC50 (HSC2 [10]): > 10000 nM | relative IC50 (HSC1 [11]): > 10000 nM | relative IC50 (S462): > 10000 nM | relative IC50 (HS-PSS [12]): > 10000 nM

CC(C)(C)c1cnc(CSc2cnc(NC(=O)C3CCNCC3)s2)o1 [SNS-032]
relative IC50 (ST8814 [1]): 27.2 nM | relative IC50 (STS26T [2]): 15.9 nM | relative IC50 (S1507-2 [3]): > 10000 nM | relative IC50 (HSC2 [4]): 6.74 nM | relative IC50 (HSC1 [5]): 11.9 nM | relative IC50 (HS-PSS [6]): 2450 nM | relative IC50 (HS-Sch-2): 48.5 nM | relative IC50 (ST8814 [7]): 46.6 nM | relative IC50 (STS26T [8]): 21 nM | relative IC50 (YST-1): 38.3 nM | relative IC50 (S1507-2 [9]): 141 nM | relative IC50 (HSC2 [10]): 3.76 nM | relative IC50 (HSC1 [11]): 5.57 nM | relative IC50 (S462): 10.4 nM | relative IC50 (HS-PSS [12]): 26.7 nM

C=CCNC1=C2C[C@@H](C)C[C@H](OC)[C@H](O)[C@@H](C)/C=C(\C)[C@H](OC(N)=O)[C@@H](OC)/C=C\C=C(/C)C(=O)NC(=CC1=O)C2=O [Tanespimycin]
relative IC50 (ST8814 [1]): 729 nM | relative IC50 (STS26T [2]): 160 nM | relative IC50 (S1507-2 [3]): 397 nM | relative IC50 (HSC2 [4]): 258 nM | relative IC50 (HSC1 [5]): 321 nM | relative IC50 (HS-PSS [6]): 460 nM | relative IC50 (HS-Sch-2): 128 nM | relative IC50 (ST8814 [7]): 158 nM | relative IC50 (STS26T [8]): 108 nM | relative IC50 (YST-1): 49.4 nM | relative IC50 (S1507-2 [9]): 170 nM | relative IC50 (HSC2 [10]): 380 nM | relative IC50 (HSC1 [11]): 421 nM | relative IC50 (S462): 310 nM | relative IC50 (HS-PSS [12]): 157 nM

Cc1[nH]c2ccccc2c1CCNCc1ccc(/C=C/C(=O)NO)cc1 [Panobinostat]
relative IC50 (ST8814 [1]): 36.6 nM | relative IC50 (STS26T [2]): 64.9 nM | relative IC50 (S1507-2 [3]): 30.9 nM | relative IC50 (HSC2 [4]): 122 nM | relative IC50 (HSC1 [5]): 125 nM | relative IC50 (HS-PSS [6]): 89.1 nM | relative IC50 (HS-Sch-2): 25.4 nM | relative IC50 (ST8814 [7]): 15 nM | relative IC50 (STS26T [8]): 35.4 nM | relative IC50 (YST-1): 9.07 nM | relative IC50 (S1507-2 [9]): 11.2 nM | relative IC50 (HSC2 [10]): 37.2 nM | relative IC50 (HSC1 [11]): 20.8 nM | relative IC50 (S462): 14.2 nM | relative IC50 (HS-PSS [12]): 54.8 nM

c1ccc([C@H]2CN3CCSC3=N2)cc1 [Levamisole]
relative IC50 (ST8814 [1]): > 10000 nM | relative IC50 (STS26T [2]): > 10000 nM | relative IC50 (S1507-2 [3]): > 10000 nM | relative IC50 (HSC2 [4]): > 10000 nM | relative IC50 (HSC1 [5]): > 10000 nM | relative IC50 (HS-PSS [6]): > 10000 nM | relative IC50 (HS-Sch-2): > 10000 nM | relative IC50 (ST8814 [7]): > 10000 nM | relative IC50 (STS26T [8]): > 10000 nM | relative IC50 (YST-1): > 10000 nM | relative IC50 (S1507-2 [9]): > 10000 nM | relative IC50 (HSC2 [10]): > 10000 nM | relative IC50 (HSC1 [11]): > 10000 nM | relative IC50 (S462): > 10000 nM | relative IC50 (HS-PSS [12]): > 10000 nM

O=C(/C=C/c1cccnc1)NCCCCC1CCN(C(=O)c2ccccc2)CC1 [Daporinad]
relative IC50 (ST8814 [1]): > 1000 nM | relative IC50 (STS26T [2]): 36.1 nM | relative IC50 (S1507-2 [3]): > 1000 nM | relative IC50 (HSC2 [4]): > 1000 nM | relative IC50 (HSC1 [5]): > 1000 nM | relative IC50 (HS-PSS [6]): > 1000 nM | relative IC50 (HS-Sch-2): 3.57 nM | relative IC50 (ST8814 [7]): 7.62 nM | relative IC50 (STS26T [8]): 36.9 nM | relative IC50 (YST-1): 2.8 nM | relative IC50 (S1507-2 [9]): 37.8 nM | relative IC50 (HSC2 [10]): 8.05 nM | relative IC50 (HSC1 [11]): 7.32 nM | relative IC50 (S462): 4.41 nM | relative IC50 (HS-PSS [12]): 5.73 nM

CC(=O)O[C@H]1C(=O)[C@@]2(C)[C@H]([C@H](OC(=O)c3ccccc3)[C@]3(O)C[C@H](OC(=O)[C@H](O)[C@@H](NC(=O)c4ccccc4)c4ccccc4)C(C)=C1C3(C)C)[C@]1(OC(C)=O)CO[C@@H]1C[C@@H]2O [Paclitaxel]
relative IC50 (ST8814 [1]): 25 nM | relative IC50 (STS26T [2]): 1.72 nM | relative IC50 (S1507-2 [3]): 42.3 nM | relative IC50 (HSC2 [4]): 19 nM | relative IC50 (HSC1 [5]): 24.4 nM | relative IC50 (HS-PSS [6]): > 1000 nM | relative IC50 (HS-Sch-2): 8.71 nM | relative IC50 (ST8814 [7]): 21.7 nM | relative IC50 (STS26T [8]): 4.63 nM | relative IC50 (YST-1): 3.83 nM | relative IC50 (S1507-2 [9]): 18.5 nM | relative IC50 (HSC2 [10]): 8.36 nM | relative IC50 (HSC1 [11]): 8.18 nM | relative IC50 (S462): 3.84 nM | relative IC50 (HS-PSS [12]): 6.92 nM

CCCc1cc(C)[nH]c(=O)c1CNC(=O)c1cc(-c2ccnc(N3CCN(C)CC3)c2)cc2c1cnn2C(C)C [GSK343]
relative IC50 (ST8814 [1]): 3100 nM | relative IC50 (STS26T [2]): 2660 nM | relative IC50 (S1507-2 [3]): 2310 nM | relative IC50 (HSC2 [4]): > 10000 nM | relative IC50 (HSC1 [5]): > 10000 nM | relative IC50 (HS-PSS [6]): 3090 nM | relative IC50 (HS-Sch-2): 3810 nM | relative IC50 (ST8814 [7]): 3200 nM | relative IC50 (STS26T [8]): 3820 nM | relative IC50 (YST-1): 4350 nM | relative IC50 (S1507-2 [9]): 2690 nM | relative IC50 (HSC2 [10]): 1810 nM | relative IC50 (HSC1 [11]): 1520 nM | relative IC50 (S462): 3250 nM | relative IC50 (HS-PSS [12]): 2970 nM

Source: the supplement of paper PMC5579334
